This note sets out measurements from patent publication US20240067631A1, “PYRAZOLE DERIVATIVES USEFUL AS NAMPT MODULATORS” (Cytokinetics, Inc., priority 2020, published 2024).

In general, EC50 refers to the midpoint of the concentration-response curve.

The assay has as its target human NAMPT (Homo sapiens (Human), UniProt P43490). As to the kind of experiment: Human recombinant enzyme assay (NMN fluorescence biochemical assay). Particulars: 6 nM human NAMPT, 60 min; for AC1.4 Human: concentration of compound that generates 40% higher activity over basal; for EC50: concentration that gives half-maximal activation. Here is the method:
Compounds described herein were assayed for their ability to stimulate the synthesis of nicotinamide mononucleotide (NMN) by the enzyme NAMPT. The human recombinant enzyme assay measures the activation of the enzyme activity by compounds using recombinant enzyme and substrates in a buffered cell-free system. The assay conditions closely mimic cellular environments. Dose responses were measured using an assay to detect the formation of nicotinamide mono-nucleotide. All experiments were performed in the 384-well format. Generally, 0.5 μL of DMSO containing varying concentrations of the test compound was mixed with 10 μL of the enzyme reagent solution. Enzyme reactions were initiated with the addition of 10 μL of a solution containing the substrates. The final assay conditions were as follows: 6 nM human NAMPT, 2.5 mM ATP, […] in 50 mM HEPES, pH 7.2, 1 mM DTT, 1 mM CHAPS 50 mM NaCl, 100 mM MgCl2. Following an incubation of 60 min at ambient temperature, 10 μL of 20% acetophenone in DMSO was added, followed by 10 μL of 2 M KOH and 40 μL of formic acid. The plates were read for fluorescence (Excitation/Emission=355 nm/460 nm) using an EnVision plate reader after 40 mins of incubation at ambient temperature. The potency measurements for compounds, are quantified and represented as AC1.4 (the concentration of compounds that generates 40% higher activity over basal) and EC50 (concentration of the compound that gives half-maximal activation).

human NAMPT, sequence (P43490 whole entry): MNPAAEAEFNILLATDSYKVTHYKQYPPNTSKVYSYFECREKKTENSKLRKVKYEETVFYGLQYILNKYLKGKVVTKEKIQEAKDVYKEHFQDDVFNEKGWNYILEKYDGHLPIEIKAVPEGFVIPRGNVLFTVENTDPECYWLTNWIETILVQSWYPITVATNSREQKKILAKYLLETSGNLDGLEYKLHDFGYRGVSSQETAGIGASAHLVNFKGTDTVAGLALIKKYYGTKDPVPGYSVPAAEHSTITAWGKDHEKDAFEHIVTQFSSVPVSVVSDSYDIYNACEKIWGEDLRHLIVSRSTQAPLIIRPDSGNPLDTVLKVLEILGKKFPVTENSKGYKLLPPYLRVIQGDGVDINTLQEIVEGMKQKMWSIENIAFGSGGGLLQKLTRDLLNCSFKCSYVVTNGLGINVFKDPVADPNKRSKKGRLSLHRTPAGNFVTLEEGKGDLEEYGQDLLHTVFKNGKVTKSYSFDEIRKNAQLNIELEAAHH

As for `Cc1nc(C(=O)NC(C)c2ccc(Cl)s2)nc(NCCc2cn[nH]c2)c1C` (centres unmarked) [Compound 70, 4-((2-(1H-pyrazol-4-yl)ethyl)amino)-N-(1-(5-chlorothiophen-2-yl)ethyl)-5,6-dimethylpyrimidine-2-carboxamide], the “AC1.4 Human” value is 0.5795 µM and the EC50 worked out at 3.12 µM.

In the case of `Cc1nc(C(=O)N[C@H](C)C2CCCCC2)nc(NCCc2cn[nH]c2)c1C` [Compound 116, (R)-4-((2-(1H-pyrazol-4-yl)ethyl)amino)-N-(1-cyclohexylethyl)-5,6-dimethylpyrimidine-2-carboxamide], the “AC1.4 Human” value was 2.9705 µM and the concentration for a half-maximal effect (EC50) turned out to be 29.6 µM.

Take `Cc1nc(C(=O)N[C@@H](C)c2ccccc2Cl)nc(NCCc2cn[nH]c2)c1C` [Compound 99, (S)-4-((2-(1H-pyrazol-4-yl)ethyl)amino)-N-(1-(2-chlorophenyl)ethyl)-5,6-dimethylpyrimidine-2-carboxamide]: the “AC1.4 Human” value came to 1.5915 µM and the half-maximal effective concentration (EC50) came to 20 µM.

In the case of `Cc1nc(C(=O)N[C@@H](C)c2cccs2)nc(NCCc2cn[nH]c2)c1C` [Compound 8, (S)-4-((2-(1H-pyrazol-4-yl)ethyl)amino)-5,6-dimethyl-N-(1-(thiophen-2-yl)ethyl)pyrimidine-2-carboxamide], the “AC1.4 Human” value came to 0.0325 µM and the EC50 is 0.182 µM.

As to `Cc1nc(C(=O)N2CCC2c2cccc(F)c2)nc(NCCc2cn[nH]c2)c1C` (centres unmarked) [Compound 115, (4-((2-(1H-pyrazol-4-yl)ethyl)amino)-5,6-dimethylpyrimidin-2-yl)(2-(3-fluorophenyl)azetidin-1-yl)methanone], the “AC1.4 Human” value turned out to be 2.136 µM and the EC50 was 10.7 µM.

For `Cc1nc(C(=O)N2CCC[C@@H]2c2ccccc2)nc(NCCc2cn[nH]c2)c1C` [Compound 38, (R)-(4-((2-(1H-pyrazol-4-yl)ethyl)amino)-5,6-dimethylpyrimidin-2-yl)(2-phenylpyrrolidin-1-yl)methanone], the “AC1.4 Human” value was found to be 0.1635 µM and the half-maximal effective concentration (EC50) is 3.83 µM.

For `Cc1nc(C(=O)NC(C)(C)c2ccccn2)nc(NCCc2cn[nH]c2)c1C` [Compound 69, 4-((2-(1H-pyrazol-4-yl)ethyl)amino)-5,6-dimethyl-N-(2-(pyridin-2-yl)propan-2-yl)pyrimidine-2-carboxamide], the “AC1.4 Human” value was 0.5395 µM and the EC50 turned out to be 4.18 µM.

For `Cc1nc(C(=O)NC(C)c2cccc(Cl)n2)nc(NCCc2cn[nH]c2)c1C` (centres unmarked) [Compound 36, 4-((2-(1H-pyrazol-4-yl)ethyl)amino)-N-(1-(6-chloropyridin-2-yl)ethyl)-5,6-dimethylpyrimidine-2-carboxamide], the “AC1.4 Human” value was determined as 0.2015 µM and the concentration giving a half-maximal response (EC50) stood at 0.882 µM.

With `Cc1nc(C(=O)NC(C)c2ncco2)nc(NCCc2cn[nH]c2)c1C` (centres unmarked) [Compound 108, 4-((2-(1H-pyrazol-4-yl)ethyl)amino)-5,6-dimethyl-N-(1-(oxazol-2-yl)ethyl)pyrimidine-2-carboxamide], the “AC1.4 Human” value turned out to be 1.7855 µM and the concentration giving a half-maximal response (EC50) worked out at 18.1 µM.

For the compound `Cc1nc(C(=O)N2CC(C)(c3ccccc3)C2)nc(NCCc2cn[nH]c2)c1C` [Compound 89, (4-((2-(1H-pyrazol-4-yl)ethyl)amino)-5,6-dimethylpyrimidin-2-yl)(3-methyl-3-phenylazetidin-1-yl)methanone], the “AC1.4 Human” value is 4.9195 µM and the EC50 was determined as 37.3 µM.

As to `Cc1nc(C(=O)N2CC(O)(c3cccc(F)c3)C2)nc(NCCc2cn[nH]c2)c1C` [Compound 3, (4-((2-(1H-pyrazol-4-yl)ethyl)amino)-5,6-dimethylpyrimidin-2-yl)(3-(3-fluorophenyl)-3-hydroxyazetidin-1-yl)methanone], the “AC1.4 Human” value stood at 0.0165 µM and the concentration giving a half-maximal response (EC50) was found to be 0.653 µM.

As for `Cc1nc(C(=O)N[C@H](C)c2ccc(F)cn2)nc(NCCc2cn[nH]c2)c1C` [Compound 118, (R)-4-((2-(1H-pyrazol-4-yl)ethyl)amino)-N-(1-(5-fluoropyridin-2-yl)ethyl)-5,6-dimethylpyrimidine-2-carboxamide], the “AC1.4 Human” value was determined as 2.384 µM and the EC50 turned out to be 11.8 µM.

In the case of `Cc1cc(NCCc2cn[nH]c2)nc(C(=O)N2CCC[C@@H]2c2cccc(F)c2)c1` [Compound 152], the “AC1.4 Human” value is 12.6 µM.

As to `Cc1nc(C(=O)NCCc2ccccc2)nc(NCCc2cn[nH]c2)c1C` [Compound 50, 4-((2-(1H-pyrazol-4-yl)ethyl)amino)-5,6-dimethyl-N-phenethylpyrimidine-2-carboxamide], the “AC1.4 Human” value came out at 0.311 µM and the EC50 came to 2.08 µM.

Take `Cc1nc(C(=O)NC(c2ccccc2F)c2nccn2C)nc(NCCc2cn[nH]c2)c1C` (centres unmarked) [Compound 98, 4-((2-(1H-pyrazol-4-yl)ethyl)amino)-N-((2-fluorophenyl)(1-methyl-1H-imidazol-2-yl)methyl)-5,6-dimethylpyrimidine-2-carboxamide]: the “AC1.4 Human” value turned out to be 1.3275 µM and the EC50 turned out to be 5.15 µM.

Consider `Cc1nc(C(=O)NC2(c3ccccn3)CCC2)nc(NCCc2cn[nH]c2)c1C` [Compound 145, 4-((2-(1H-pyrazol-4-yl)ethyl)amino)-5,6-dimethyl-N-(1-(pyridin-2-yl)cyclobutyl)pyrimidine-2-carboxamide], for which the “AC1.4 Human” value is 4.9555 µM and the EC50 was determined as 22.4 µM.

As for `Cc1nc(C(=O)NCc2ncccc2F)nc(NCCc2cn[nH]c2)c1C` [Compound 120, 4-((2-(1H-pyrazol-4-yl)ethyl)amino)-N-((3-fluoropyridin-2-yl)methyl)-5,6-dimethylpyrimidine-2-carboxamide], the “AC1.4 Human” value turned out to be 2.443 µM and the EC50 is 15.2 µM.

Take `Cc1nc(C(=O)NC(c2ccccc2)C(F)(F)F)nc(NCCc2cn[nH]c2)c1C` (centres unmarked) [Compound 33, 4-((2-(1H-pyrazol-4-yl)ethyl)amino)-5,6-dimethyl-N-(2,2,2-trifluoro-1-phenylethyl)pyrimidine-2-carboxamide]: the “AC1.4 Human” value was determined as 0.2615 µM and the 50% effective concentration (EC50) came to 1.38 µM.

As for `Cc1nc(C(=O)NCc2cccs2)nc(NCCc2cn[nH]c2)c1C` [Compound 19, 4-((2-(1H-pyrazol-4-yl)ethyl)amino)-5,6-dimethyl-N-(thiophen-2-ylmethyl)pyrimidine-2-carboxamide], the “AC1.4 Human” value came to 0.075 µM and the half-maximal effective concentration (EC50) is 0.499 µM.

For the compound `Cc1nc(C(=O)NCCc2ccncc2F)nc(NCCc2cn[nH]c2)c1C` [Compound 113, 4-((2-(1H-pyrazol-4-yl)ethyl)amino)-N-(2-(3-fluoropyridin-4-yl)ethyl)-5,6-dimethylpyrimidine-2-carboxamide], the “AC1.4 Human” value is 2.084 µM and the EC50 came out at 18.3 µM.

On to `Cc1nc(C(=O)N2CCOC[C@@H]2Cc2ccccc2)nc(NCCc2cn[nH]c2)c1C` [Compound 72, (S)-(4-((2-(1H-pyrazol-4-yl)ethyl)amino)-5,6-dimethylpyrimidin-2-yl)(3-benzylmorpholino)methanone], for which the “AC1.4 Human” value was 0.625 µM and the EC50 was found to be 3.53 µM.

Consider `Cc1nc(C(=O)NC(c2ccccc2)c2nccn2C)nc(NCCc2cn[nH]c2)c1C` (centres unmarked) [Compound 40, 4-((2-(1H-pyrazol-4-yl)ethyl)amino)-5,6-dimethyl-N-((1-methyl-1H-imidazol-2-yl)(phenyl)methyl)pyrimidine-2-carboxamide], for which the “AC1.4 Human” value is 0.214 µM and the EC50 came out at 1.27 µM.

Consider `Cc1nc(C(=O)N[C@@H](C)c2cccc(F)n2)nc(NCCc2cn[nH]c2)c1C` [Compound 73, (S)-4-((2-(1H-pyrazol-4-yl)ethyl)amino)-N-(1-(6-fluoropyridin-2-yl)ethyl)-5,6-dimethylpyrimidine-2-carboxamide], for which the “AC1.4 Human” value was 0.6455 µM and the EC50 was 3.24 µM.

Consider `Cc1nc(C(N)=O)nc(N(CCc2ccccc2)CCc2cn[nH]c2)c1C` [Compound 1, 4-((2-(1H-pyrazol-4-yl)ethyl)(phenethyl)amino)-5,6-dimethylpyrimidine-2-carboxamide], for which the “AC1.4 Human” value stood at 0.003 µM and the EC50 came to 0.131 µM.

Regarding `Cc1nc(C(=O)NC2(Cc3ccc(F)cc3Cl)CCOCC2)nc(NCCc2cn[nH]c2)c1C` [Compound 85, 4-((2-(1H-pyrazol-4-yl)ethyl)amino)-N-(4-(2-chloro-4-fluorobenzyl)tetrahydro-2H-pyran-4-yl)-5,6-dimethylpyrimidine-2-carboxamide], the “AC1.4 Human” value is 1.072 µM and the EC50 was 8.35 µM.

Turning to `Cc1nc(C(=O)NCC(O)C(F)(F)F)nc(NCCc2cn[nH]c2)c1C` (centres unmarked) [Compound 128, 4-((2-(1H-pyrazol-4-yl)ethyl)amino)-5,6-dimethyl-N-(3,3,3-trifluoro-2-hydroxypropyl)pyrimidine-2-carboxamide], the “AC1.4 Human” value is 3.235 µM and the 50% effective concentration (EC50) worked out at 28 µM.

Consider `Cc1nc(C(=O)N2CCC2c2ccccc2)nc(NCCc2cn[nH]c2)c1C` (centres unmarked) [Compound 132, (4-((2-(1H-pyrazol-4-yl)ethyl)amino)-5,6-dimethylpyrimidin-2-yl)(2-phenylazetidin-1-yl)methanone], for which the “AC1.4 Human” value was 3.5055 µM and the concentration giving a half-maximal response (EC50) was 13.1 µM.
